Assay results published in paper PMC11996864, “A small-molecule inhibitor of BCL10-MALT1 interaction abrogates progression of diffuse large B cell lymphoma” (The Journal of Clinical Investigation, 2025).
“And” between values parts separate entries of the source, which are not always exact repeats. Identical values can stand only once.

Tests used:
Assay type in all cases: cell-based, human
TMD8 cells = assay: IL-6 and IL-10 secretion, cytokine ELISA; conditions: for IL-6 and IL-10 secretion: TMD8, result in words
Protocol: (§1) Cytokine ELISAs. Cytokines in cell culture supernatants were measured 20-24h after treatment with 0, 0.01, 0.03, 0.1, 0.3, 1, or 3 µM of compounds using the following ELISA kits according to the manufacturer’s instructions: Human IL-2 ELISA (BioLegend Cat# 431804), Human IL-6 ELISA (BioLegend Cat# 430504), and Human IL-10 ELISA (BioLegend Cat# 430604). […]

OCI-Ly3 cells = assay: IL-6 and IL-10 secretion, cytokine ELISA; conditions: for IL-6 and IL-10 secretion: OCI-Ly3, result in words; for IL-6 protein (normalized) / IL-10 protein (normalized): OCI-Ly3 cells, individual replicates n=3
Protocol: as §1

OCI-Ly1 cells = assay: Apoptosis, annexin V/SYTOX Blue flow cytometry
Protocol: Cell proliferation, viability, and apoptosis assays. […]
Annexin V Alexa 488
(ThermoFisher Scientific, Cat# A13201) and SYTOX Blue Dead Cell (ThermoFisher Scientific, Cat# S34857) stains were used to detect apoptosis in DLBCL cells after treatment with 1 µM compounds for 8 days in TMD8 and OCI-Ly1 and for 5 days in OCI-Ly3 cells, then analyzed with flow cytometry. The percentages of cells in early and late apoptosis were combined for quantification. For CellTrace Violet, CellTiter-glo, and Annexin V apoptosis assays, cell were cultured in media with 50% of the usual serum. […]

[1] = test system: IKKα/β phosphorylation in Jurkat T cells; assay: IKKα/β phosphorylation after CD3/CD28 stimulation (MALT1 scaffolding activity); conditions: for pIKK (normalized): Jurkat, 1 μM; for IKK phosphorylation: result in words
Protocol: (§2) Western blot analysis of RelB and N4BP1 cleavage was used to test the effect of small molecules on MALT1 protease activity. To this end, 3 million Jurkat T cells were pretreated with compounds for 24 hours in serum-free media, and then 5 μM MG-132 was added for 1 hour before stimulation with CD3/CD28 (Stemcell Technologies, catalog 10971), and lysed in RIPA buffer (Millipore, catalog 20-188) with protease and phosphatase inhibitor cocktail (Pierce, catalog 78446). IKKα/β phosphorylation and IκBα phosphorylation were used as measures of MALT1 scaffolding activity, while ERK1/2 phosphorylation was used as a control. Two million Jurkat T cells were treated with 1 μM M1i-124, 1 μM M1i-124d1, or DMSO in serum-free media for 16 hours, stimulated with CD3/CD28 for 0, 5, 10, or 20 minutes, and then immediately lysed in RIPA buffer with protease and phosphatase inhibitors. For experiments evaluating RelB cleavage and phosphorylation of IκBα in TMD8 cells, cells were treated with compounds for 24 hours in media containing 5% FBS. For RelB Western blot analysis, 5 μM MG-132 (Cell Signaling Technology, catalog 2194s) was added 4 hours before lysis in RIPA lysis buffer with protease/phosphatase inhibitors.

[2] = test system: IκB phosphorylation in TMD8 cells; assay: Constitutive IκB phosphorylation, Western blot; conditions: for IκB phosphorylation in TMD8 cells: result in words
Protocol: as §2

SMILES	IL-6 protein (normalized) (TMD8 cells; TMD8, Dose (µM) 0.01)	IL-10 protein (normalized) (TMD8 cells; TMD8, Dose (µM) 0.01)	IL-6 protein (normalized) (TMD8 cells; TMD8, Dose (µM) 0.03)	IL-10 protein (normalized) (TMD8 cells; TMD8, Dose (µM) 0.03)	IL-6 protein (normalized) (TMD8 cells; TMD8, Dose (µM) 0.1)	IL-10 protein (normalized) (TMD8 cells; TMD8, Dose (µM) 0.1)	IL-6 protein (normalized) (TMD8 cells; TMD8, Dose (µM) 0.3)	IL-10 protein (normalized) (TMD8 cells; TMD8, Dose (µM) 0.3)	IL-6 protein (normalized) (TMD8 cells; TMD8, Dose (µM) 1)	IL-10 protein (normalized) (TMD8 cells; TMD8, Dose (µM) 1)	IL-6 protein (normalized) (TMD8 cells; TMD8, Dose (µM) 3)	IL-10 protein (normalized) (TMD8 cells; TMD8, Dose (µM) 3)	IL-6 and IL-10 secretion (TMD8 cells)	IL-6 and IL-10 secretion (OCI-Ly3 cells)	IL-6 protein (normalized) (OCI-Ly3 cells; dose 0.01 µM)	IL-10 protein (normalized) (OCI-Ly3 cells; dose 0.01 µM)	IL-6 protein (normalized) (OCI-Ly3 cells; dose 0.03 µM)	IL-10 protein (normalized) (OCI-Ly3 cells; dose 0.03 µM)	IL-6 protein (normalized) (OCI-Ly3 cells; dose 0.1 µM)	IL-10 protein (normalized) (OCI-Ly3 cells; dose 0.1 µM)	other results
O=S(=O)(NCc1ccc2c(c1)OCO2)c1ccc(Cc2ccc(S(=O)(=O)NCc3ccc4c(c3)OCO4)cc2)cc1 [M1i-124]	95.9364 and 102.213 and 93.8323	92.0215 and 104.795 and 93.5401	87.0698 and 93.9663 and 88.6054	92.6437 and 90.5031 and 81.0478	69.9434 and 74.7992 and 78.3531	68.4368 and 67.4137 and 68.4567	69.7251 and 64.7937 and 50.8437	56.1427 and 56.6527 and 44.4473	36.3116 and 40.2609 and 34.3135	37.7839 and 38.0405 and 34.7537	26.8371 and 27.7392 and 25.9151	23.1611 and 23.3192 and 20.6767	dose-dependent reduction of IL-6 and IL-10 secretion	dose-dependent reduction of IL-6 and IL-10 secretion	107.046 and 97.7137 and 87.0295	103.16 and 104.534 and 97.5052	96.5093 and 109.876 and 83.6147	91.281 and 93.6459 and 78.8249	75.4106 and 89.2481 and 95.3244	87.8156 and 90.4046 and 87.8267	IC50 (TMD8 cells; Homo sapiens, cell-based assays measuring functional MALT1 inhibition, span over cytokines and cell lines (TMD8, OCI-Ly3; Supplemental Table 1)): 500 to 1300 nM; IL-6 protein (normalized) (OCI-Ly3 cells; dose 0.3 µM): 61.7285 and 64.3367 and 64.4209; IL-10 protein (normalized) (OCI-Ly3 cells; dose 0.3 µM): 53.7308 and 68.0081 and 65.3126; IL-6 protein (normalized) (OCI-Ly3 cells; dose 1 µM): 45.5755 and 29.5412 and 43.2472; IL-10 protein (normalized) (OCI-Ly3 cells; dose 1 µM): 42.8574 and 34.5822 and 37.4365; IL-6 protein (normalized) (OCI-Ly3 cells; dose 3 µM): 32.8587 and 36.4245 and 37.9702; IL-10 protein (normalized) (OCI-Ly3 cells; dose 3 µM): 27.1129 and 25.9246 and 27.6249; Annexin (% positivity) (OCI-Ly1 cells; Ly1, individual replicates): 14.6% and 13.45% and 17.85%; pIKK (normalized) ([1]; CD3/CD28 0 min): 0.4315 and 0.5112 and 0.3213 and 0.2741 and 0.4341; IKK phosphorylation [1]: reduced IKK phosphorylation; IκB phosphorylation in TMD8 cells [2]: marked reduction in IκB phosphorylation
COc1ccc(CNS(=O)(=O)c2ccc(Cc3ccc(S(=O)(=O)NCc4ccc(OC)cc4)cc3)cc2)cc1 [M1i-124d1]	93.5197 and 93.7514 and 94.5387	69.769 and 89.382 and 96.8917	91.3047 and 88.3022 and 85.704	62.2564 and 54.1514 and 73.6549	77.5452 and 70.6916 and 62.4629	60.4815 and 45.5606 and 38.3417	55.6968 and 55.4486 and 52.1775	40.1613 and 36.3491 and 28.9939	45.5895 and 45.5473 and 39.027	29.9544 and 27.9974 and 29.4587	41.6763 and 36.3341 and 29.5994	27.5683 and 24.6599 and 35.0793	dose-dependent reduction of IL-6 and IL-10 secretion	dose-dependent reduction of IL-6 and IL-10 secretion	99.5607 and 97.9207 and 112.031	79.7769 and 92.2916 and 96.3976	98.1802 and 88.2708 and 79.406	92.2982 and 70.1649 and 75.2443	82.137 and 88.0559 and 90.8694	78.4383 and 79.1463 and 60.8949	IL-6 protein (normalized) (OCI-Ly3 cells; dose 0.3 µM): 78.0338 and 77.6618 and 76.9556; IL-10 protein (normalized) (OCI-Ly3 cells; dose 0.3 µM): 68.3626 and 76.063 and 76.9269; IL-6 protein (normalized) (OCI-Ly3 cells; dose 1 µM): 82.5608 and 76.3464 and 79.062; IL-10 protein (normalized) (OCI-Ly3 cells; dose 1 µM): 58.0215 and 44.447 and 56.2881; IL-6 protein (normalized) (OCI-Ly3 cells; dose 3 µM): 67.8445 and 70.7121 and 79.6228; IL-10 protein (normalized) (OCI-Ly3 cells; dose 3 µM): 43.78 and 51.6743 and 38.3491; Percent Apoptotic cells (OCI-Ly1 cells; OCI-Ly1): 9.94% and 10.39% and 9.5% and 11.36% and 12.09% and 11.72%; pIKK (normalized) ([1]; CD3/CD28 10 min): 0.3485 and 0.3518 and 0.2777 and 0.3582 and 0.2291; IKK phosphorylation [1]: reduced IKK phosphorylation; pIkB (normalized) ([2]; TMD8, 1 μM, 24 hours): 0.264 and 0.345; IκB phosphorylation in TMD8 cells [2]: marked reduction in IκB phosphorylation
